Experimental data: ChEMBL document CHEMBL2401737 (J Med Chem, 2013)

Assays:
[1] = tested on: Human immunodeficiency virus; test: Antiviral activity against Human immunodeficiency virus harboring integrase Q148K mutant infected in human HeLa cells expressing CD4 after 2 days by beta galactosidase assay relative to wild type HIV; assay type: functional
[2] = tested on: Human immunodeficiency virus; test: Antiviral activity against pseudo Human immunodeficiency virus infected in HEK293T cells after 2 days in presence of human serum albumin; assay type: functional, organism-based; conditions: Human immunodeficiency virus 1, HEK-293T, 48 h
[3] = tested on: Human immunodeficiency virus; test: Antiviral activity against pseudo Human immunodeficiency virus infected in HEK293T cells after 2 days; assay type: functional, organism-based; conditions: Human immunodeficiency virus 1, HEK-293T, 48 h
[4] = tested on: Human immunodeficiency virus; test: Ratio of IC50 for pseudo Human immunodeficiency virus to IC50 for pseudo Human immunodeficiency virus in presence of human serum albumin; assay type: functional
[5] = Clearance in iv dosed rat; assay type: ADME, organism-based; conditions: in vivo
[6] = Oral bioavailability in rat; assay type: ADME, organism-based; conditions: in vivo
[7] = target: Human immunodeficiency virus type 1 integrase (Human immunodeficiency virus 1, UniProt Q7ZJM1); test: Inhibition of HIV-1 integrase strand transfer activity using [3H]-DNA as substrate preincubated for 60 mins prior to substrate addition measured after 25 to 45 mins
Chain of Human immunodeficiency virus type 1 integrase (Q7ZJM1 whole entry): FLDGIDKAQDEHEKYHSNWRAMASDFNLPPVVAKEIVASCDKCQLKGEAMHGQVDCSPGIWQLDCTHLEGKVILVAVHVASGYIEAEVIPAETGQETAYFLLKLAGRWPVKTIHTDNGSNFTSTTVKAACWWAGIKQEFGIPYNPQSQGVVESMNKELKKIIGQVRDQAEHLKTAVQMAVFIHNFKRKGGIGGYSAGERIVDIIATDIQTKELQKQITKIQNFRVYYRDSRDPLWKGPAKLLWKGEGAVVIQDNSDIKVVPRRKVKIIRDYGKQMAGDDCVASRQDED

[8] = tested on: Human immunodeficiency virus 1; test: Antiviral activity against Human immunodeficiency virus 1 Ba-L infected human PBMC after 7 days by [methyl-3H]dTTP incorporation assay; assay type: functional, organism-based; conditions: 168 h
[9] = tested on: Human immunodeficiency virus 1; test: Antiviral activity against Human immunodeficiency virus 1 3B infected in human MT4 cells after 4 to 5 days by bioluminescence assay in presence of human serum relative to control; assay type: functional
[10] = tested on: Human immunodeficiency virus 1; test: Antiviral activity against Human immunodeficiency virus 1 3B infected in human MT4 cells after 4 to 5 days by bioluminescence assay; assay type: functional, organism-based

SMILES | fold change (FC) [1] | IC50 [2] | IC50 [3] | further results
O=C(NCc1ccc(F)cc1F)c1cn2c(c(O)c1=O)C(=O)N1[C@@H](Cc3c[nH]c4ccccc34)CO[C@@H]1C2 | 22 | 71 nM | 1.6 nM | 
C[C@@H]1CCN2C(=O)c3c(O)c(=O)c(C(=O)NCc4ccc(F)cc4F)cn3C[C@@H]2O1 | 2.1 | 7 nM | 0.9 nM | 
CC1(C)CO[C@@H]2Cn3cc(C(=O)NCc4ccc(F)cc4)c(=O)c(O)c3C(=O)N2C1 | 8.1 | 7.9 nM | 2 nM | 
CC[C@@H]1CO[C@H]2Cn3cc(C(=O)NCc4ccc(F)cc4F)c(=O)c(O)c3C(=O)N12 | 63 | 35 nM | 8.5 nM | 
C[C@@H]1CO[C@H]2Cn3cc(C(=O)NCc4ccc(F)cc4)c(=O)c(O)c3C(=O)N2C1 | 36 | 210 nM | 0.8 nM | 
C[C@H]1CCN2C(=O)c3c(O)c(=O)c(C(=O)NCc4ccc(F)cc4F)cn3C[C@H]2O1 | 2.8 | 1.5 nM | 0.5 nM | 
C[C@H]1CO[C@@H]2Cn3cc(C(=O)NCc4ccc(F)cc4)c(=O)c(O)c3C(=O)N2C1 | 9.9 | 5.6 nM | 0.7 nM | 
O=C(NCc1ccc(F)cc1F)c1cn2c(c(O)c1=O)C(=O)N1[C@H](Cc3ccccc3)CO[C@H]1C2 | 19 | 4.5 nM | 0.6 nM | Ratio IC50 [4]: >7
CC(C)C[C@@H]1CO[C@H]2Cn3cc(C(=O)NCc4ccc(F)cc4F)c(=O)c(O)c3C(=O)N12 | 51 | 16 nM | 3.2 nM | 
CC1(C)CO[C@H]2Cn3cc(C(=O)NCc4ccc(F)cc4)c(=O)c(O)c3C(=O)N2C1 | 3.6 | 440 nM | 1.1 nM | 
CC(C)(C)[C@H]1CO[C@@H]2Cn3cc(C(=O)NCc4ccc(F)cc4)c(=O)c(O)c3C(=O)N21 | 74 | 35 nM | 4 nM | 
CCCC[C@H]1CO[C@@H]2Cn3cc(C(=O)NCc4ccc(F)cc4F)c(=O)c(O)c3C(=O)N12 | >57 | 1800 nM | 87 nM | 
O=C(NCc1ccc(F)cc1F)c1cn2c(c(O)c1=O)C(=O)N1[C@@H](Cc3ccc(O)cc3)CO[C@@H]1C2 | 1.6 | 22 nM | 2.1 nM | 
O=C(NCc1ccc(F)cc1F)c1cn2c(c(O)c1=O)C(=O)N1[C@@H](c3ccccc3)CO[C@@H]1C2 | 44 | 620 nM | 72 nM | 
O=C(NCc1ccc(F)cc1F)c1cn2c(c(O)c1=O)C(=O)N1CC[C@@H](c3ccccc3)O[C@H]1C2 | 8.5 | 50 nM | 5.6 nM | 
O=C(NCc1ccc(F)cc1)c1cn2c(c(O)c1=O)C(=O)N1CCCO[C@@H]1C2 | 11 | 9.4 nM | 2.2 nM | clearance [5]: 0.17 mL/min/kg; bioavailability [6]: 52%
CC[C@H]1CCN2C(=O)c3c(O)c(=O)c(C(=O)NCc4ccc(F)cc4F)cn3C[C@H]2O1 | 2.2 | 3.1 nM | 0.5 nM | 
O=C(NCc1ccc(F)cc1)c1cn2c(c(O)c1=O)C(=O)N1CCCOC1C2 (racemic) | 2.8 | 20 nM | 1.9 nM | clearance [5]: 0.1 mL/min/kg; bioavailability [6]: 51%
C[C@H]1CO[C@@H]2Cn3cc(C(=O)NCc4ccc(F)cc4F)c(=O)c(O)c3C(=O)N2C1 | 5.7 | 5.2 nM | 0.5 nM | 
CC[C@H]1CO[C@@H]2Cn3cc(C(=O)NCc4ccc(F)cc4F)c(=O)c(O)c3C(=O)N12 |  | 63 nM | 0.9 nM | 
CC[C@@H]1CCN2C(=O)c3c(O)c(=O)c(C(=O)NCc4ccc(F)cc4F)cn3C[C@@H]2O1 | 4.6 | 9.4 nM | 0.7 nM | 

SMILES | fold change (FC) [1] | IC50 [2] | IC50 [3] | further results
C[C@@H]1CO[C@H]2Cn3cc(C(=O)NCc4ccc(F)cc4F)c(=O)c(O)c3C(=O)N12 | 35 | 39 nM | 5.4 nM | Ratio IC50 [4]: >7
O=C(NCc1ccc(F)cc1F)c1cn2c(c(O)c1=O)C(=O)N1[C@@H](CO)CO[C@@H]1C2 | 12 | 37 nM | 10 nM | 
Cc1nnc(C(=O)NC(C)(C)c2nc(C(=O)NCc3ccc(F)cc3)c([O-])c(=O)n2C)o1.[K+] [RALTEGRAVIR POTASSIUM] | 79 | 7.1 nM | 2 nM | Ratio IC50 [4]: 77
O=C(NCc1ccc(F)cc1F)c1cn2c(c(O)c1=O)C(=O)N1[C@@H](Cc3ccccc3)CO[C@@H]1C2 | 13 | 380 nM | 13 nM | 
C[C@@H]1CCN2C(=O)c3c(O)c(=O)c(C(=O)NCc4ccc(F)cc4)cn3C[C@@H]2O1 |  | 25 nM | 2.1 nM | IC50 [7]: 5 nM; Ratio IC50 [4]: 12
COC[C@H]1CCN2C(=O)c3c(O)c(=O)c(C(=O)NCc4ccc(F)cc4F)cn3C[C@H]2O1 | 3.5 | 0.9 nM | 0.4 nM | Ratio IC50 [4]: 2
CSCC[C@H]1CO[C@@H]2Cn3cc(C(=O)NCc4ccc(F)cc4F)c(=O)c(O)c3C(=O)N12 |  | 18 nM | 3.1 nM | 
CC(C)[C@H]1CO[C@@H]2Cn3cc(C(=O)NCc4ccc(F)cc4F)c(=O)c(O)c3C(=O)N12 | 100 | 300 nM | 4.8 nM | 
C[C@@H]1CCO[C@H]2Cn3cc(C(=O)NCc4ccc(F)cc4F)c(=O)c(O)c3C(=O)N12 [DOLUTEGRAVIR] | 0.4 | 22 nM | 1.7 nM | IC50 [8]: 0.5 nM; fold change (FC) [9]: 75; IC90 [2]: 0.0374 µg/mL; IC50 [10]: 2 nM
CC(C)[C@H]1CCN2C(=O)c3c(O)c(=O)c(C(=O)NCc4ccc(F)cc4F)cn3C[C@H]2O1 | 1.9 | 4.1 nM | 0.7 nM | 
CC[C@H](C)[C@H]1CO[C@@H]2Cn3cc(C(=O)NCc4ccc(F)cc4F)c(=O)c(O)c3C(=O)N12 | 200 | 200 nM | 20 nM | 
COC[C@@H]1CCN2C(=O)c3c(O)c(=O)c(C(=O)NCc4ccc(F)cc4F)cn3C[C@@H]2O1 | 5 | 2.3 nM | 1.4 nM | Ratio IC50 [4]: 2
O=C(NCc1ccc(F)cc1)c1cn2c(c(O)c1=O)C(=O)N1CCCO[C@H]1C2 | 2.4 | 81 nM | 1.9 nM | clearance [5]: 0.1 mL/min/kg; bioavailability [6]: 79%; Ratio IC50 [4]: 43
CC(C)(C)[C@H]1CO[C@@H]2Cn3cc(C(=O)NCc4ccc(F)cc4F)c(=O)c(O)c3C(=O)N21 | 130 | 130 nM | 20 nM | 
C[C@H]1CCO[C@@H]2Cn3cc(C(=O)NCc4ccc(F)cc4F)c(=O)c(O)c3C(=O)N12 | 2.2 | 4 nM | 0.5 nM | 
CS(=O)(=O)CC[C@H]1CO[C@@H]2Cn3cc(C(=O)NCc4ccc(F)cc4F)c(=O)c(O)c3C(=O)N12 | >10 | 370 nM | 430 nM | 
CC(C)[C@@H]1CCN2C(=O)c3c(O)c(=O)c(C(=O)NCc4ccc(F)cc4F)cn3C[C@@H]2O1 | 8.1 | 20 nM | 2 nM | 
O=C(NCc1ccc(F)cc1F)c1cn2c(c(O)c1=O)C(=O)N1[C@@H](CC3CCCCC3)CO[C@@H]1C2 | >15 | 3100 nM | 330 nM | 
C[C@H]1CO[C@@H]2Cn3cc(C(=O)NCc4ccc(F)cc4)c(=O)c(O)c3C(=O)N12 | 13 | 50 nM | 2.1 nM | 
CC(C)[C@@H]1CO[C@H]2Cn3cc(C(=O)NCc4ccc(F)cc4F)c(=O)c(O)c3C(=O)N21 | 73 | 16 nM | 4 nM | 
C[C@H]1CCN2C(=O)c3c(O)c(=O)c(C(=O)NCc4ccc(F)cc4)cn3C[C@H]2O1 |  | 3.3 nM | 1.3 nM | 
